The values below come from patent publication US8951999B2, “Compounds” (Orexo AB, priority 2009, dated 2015).

As usually defined, the IC50 is the concentration that inhibits the measured activity by half.

This test concerns the target T1, recombinant human mPGES-1 (Homo sapiens, UniProt O14684).
T1 sequence (O14684 1-152): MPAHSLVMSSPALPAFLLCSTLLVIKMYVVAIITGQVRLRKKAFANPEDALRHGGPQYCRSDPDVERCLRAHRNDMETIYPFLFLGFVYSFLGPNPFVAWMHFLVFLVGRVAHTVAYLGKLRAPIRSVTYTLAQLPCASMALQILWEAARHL
As to the kind of experiment: Assay A: mPGES-1 enzyme assay (HTRF detection of PGE2). The class given is biochemical. The settings on record: biological assay A (compounds 1-41, 54, 55, 62, 73); PGE2 formation from PGH2, HTRF; read-out: mPGES-1 inhibitory effect IC50. An excerpt: Assay A: mPGES-1 Enzyme Assay
The basis of the assay used is to measure the inhibition of microsomal prostaglandin E2 synthase-1 (mPGES-1) dependent prostaglandin (PG) E2 formation from PGH2 by different compounds. Thus, the formation of PGE2 is used as signal and a lowering of this signal can be interpreted as inhibition of mPGES-1. Similar assays to measure inhibition of mPGES-1 have previously been described in the literature.
• Glutathione (Sigma, G-4251) • Freeze culture in Rosetta E coli expression strain. • LB growth media with Ampillicillin (Amp) final concentration in culture 50 μg/mL • Chloroamphenicol stock 34 mg/mL (chloro) final concentration in culture 34 μg/mL • Sterile growth flasks for 500 mL-1 liter cultures • 0.1 M KPi buffer pH 7.4 • 9.25% HCl • PGH2 (0.25 mM) • Fe (II) Cl2 tetrahydrate, 99% (Sigma, 220229) • 384-well plate with compounds • 96-well plate, polypropylene (Thermo fast 96 skirted VWR) • 384-well plate polypropylene PCR plate (Greiner 785201) • Greiner 384-well plate pp (In vitro cat. no. 781280) • Adhesive sealing film for 96-well plates (Sigma-Aldrich) • Aluminium foil (PCR foil, 310-0030-127-471 from Labora) • PBS (GIBCO 14040) • Prostaglandin E2 Assay (Cisbio, cat. no. 62P2APEC) • Biomek FX robot (Beckman Coulter) • Biomek NX robot (Beckman Coulter) • Multidrop; micro or combi (ThermoLabsystems) • Plate reader: Safire2 (Tecan)
Microsomes from Rosetta E. coli bacteria expressing recombinant human mPGES-1 can be derived as described below:
Inoculate 5 mL LB with Amp and Chloro with bacteria from freeze culture. Incubate over night at 37° C. with 200 rpm. Thereafter, inoculate 500-800 mL LB containing Amp and Chloro with the 5 mL on culture and grow to OD640 of 0.6-0.8. Chill the culture to +4° C. before induction. Induce the culture with IPTG at a final concentration of 400 μM. Express the protein at room temp 18-23° C. with 200 rpm shaking over night.
The following steps can be performed on the following day: • 1. Spin down the cells in 250 mL centrifuge flasks for 15 min at 7000 rpm • 2. Dissolve the pellet from 250 mL culture in 12.5 mL homogenization buffer • 3. Disintegrate the cells by sonication, 4×10 seconds at 35% amplitude • 4. Add 2.5 mL MgCl2 (100 mM) and DNase 12.5 μL (0.8 mg/mL) and incubate on ice for 30 min • 5. Spin down the bacteria debris and save the supernatant, 7000 rpm for 15 min • 6. Isolate the protein containing membranes in the supernatant by ultracentrifugation 45000×g for 1 hour. • 7. Discard the supernatant and dissolve the pellet in 20 mM KPi buffer and aliquot the enzyme and store aliquots at −80° C.
Before each experiment is performed an aliquot of the enzyme is thawed and it can then be dissolved in 0.1 M KPi pH 7.4 buffer containing 2.5 mM GSH. 50 μL of this enzyme solution is subsequently dispensed in a 384-well plate at room temperature. 0.5 μL of the inhibitor dissolved in DMSO is thereafter added to each well and incubated for 25 minutes at room temperature. Subsequently, 2 μL of PGH2 dissolved in an appropriate solvent is added to each well and after one minute at room temperature, the acidified stop solution containing FeCl2 is added. 4 μL of the total volume is transferred to a separate plate and diluted 750-fold in two separate steps before quantification of PGE2.
In order to quantitate the amount of PGE2 that has been formed, a homogenous time resolved fluorescent (HTRF) detection of PGE2 can be performed by the use of a commercially available kit from CisBio essentially according to the manufacturer's protocol. […]
In general terms: Time-resolved FRET reads energy transfer from a long-lived donor to a nearby acceptor.

For `CC(C)(C)C(=O)NCc1ccc(Cl)c(C(=O)Nc2cc(F)c(F)c(C(=O)Nc3ccc(Br)cc3)c2)c1` [Example 54, N-[3,4-Difluoro-5-(4-bromophenyl)aminocarbonyl-phenyl]-2-chloro-5-(tert-butylcarbonylamino)methyl-benzamide], the IC50 was determined as 9 nM. Regarding `COc1ccc(NC(=O)c2cc(CNC(=O)C3(O)CC3)ccc2Cl)cc1C(=O)Nc1ccc(Br)cc1` [Example 28], the IC50 turned out to be 4 nM.

Take `CC(C)(C)C(=O)NCc1ccc(Cl)c(C(=O)Nc2cnc(OCC(F)F)c(C(=O)Nc3ccc(Br)cc3)c2)c1` [Example 6, N-[2-(2,2-Difluoroethyl)oxy-3-(4-bromophenyl)aminocarbonyl-pyridin-5-yl]-2-chloro-5-(tert-butylcarbonylamino)methyl-benzamide]: the IC50 was determined as 2 nM.

For `CC(C)(C)C(=O)NCc1ccc(Cl)c(C(=O)Nc2ccc(OCC(F)F)c(C(=O)NCC3CC3)c2)c1` [Example 13], the IC50 was found to be 13 nM. For `COc1ccc(NC(=O)c2cc(CNC(=O)C3(C(F)(F)F)CCCC3)ccc2Cl)cc1C(=O)Nc1ccc(Br)cc1` [Example 22] the value was 2 nM; for `COc1ccc(NC(=O)c2cc(CNC(=O)C(C)(C)C)ccc2Cl)cc1C(=O)Nc1ccc(Br)cc1` [Example 4, N-[4-Methoxy-3-(4-bromophenyl)aminocarbonyl-phenyl]-2-chloro-5-(tert-butylcarbonylamino)methyl-benzamide], 1 nM; for `COc1ccc(NC(=O)c2cc(CNC(=O)C(C)(C)C(F)(F)F)ccc2Cl)cc1C(=O)Nc1ccc(Br)cc1` [Example 9, N-[4-Methoxy-3-(4-bromophenyl)aminocarbonyl-phenyl]-2-chloro-5-(2,2,2-trifluoro-1,1-dimethyl-ethyl)carbonylaminomethyl-benzamide], 2 nM. With `O=C(Nc1ccc(Cl)c(C(=O)NC2CC2)c1)c1cc(CNC(=O)C2CC2)ccc1Cl` [Example 21] the figure was approximately 1800 nM. For `CC(C)(C)C(=O)NCc1ccc(Cl)c(C(=O)Nc2ccc(F)c(C(=O)Nc3ccc(Br)cc3)c2)c1` [Example 2, N-[4-Fluoro-3-(4-bromophenyl)aminocarbonyl-phenyl]-2-chloro-5-(tert-butylcarbonylamino)methyl-benzamide], the IC50 worked out at 4 nM. With `COc1ccc(NC(=O)c2cc(CNC(=O)C3(C(F)(F)F)CC3)ccc2Cl)cc1C(=O)Nc1ccc(Br)cc1` [Example 31] the figure was 2 nM; with `CN(C)c1ccc(NC(=O)c2cc(CNC(=O)C(C)(C)C)ccc2Cl)cc1C(=O)N[C@H]1CC[C@H](C(F)(F)F)CC1` [Example 62, N-[4-(dimethylamino)-3-(trans-4-trifluoromethylcyclohexyl)aminocarbonyl-phenyl]-2-chloro-5-(tert-butylcarbonylamino)methyl-benzamide], 11 nM. Consider `CC(C)(C)C(=O)NCc1ccc(Cl)c(C(=O)Nc2ccc(OCC(F)F)c(C(=O)Nc3ccc(Br)cc3)c2)c1` [Example 15], for which the IC50 amounted to 2 nM.

As to `COc1ccc(NC(=O)c2cc(CNC(=O)C(C)(C)C)ccc2Cl)cc1C(=O)N[C@H]1CC[C@H](C(C)(C)C)CC1` [Example 18], the IC50 was found to be 2 nM. With `COc1ccc(NC(=O)c2cc(CNC(=O)C(C)C(F)(F)F)ccc2Cl)cc1C(=O)Nc1ccc(Br)cc1` (centres unmarked) [Example 32] the figure was 2 nM.

In the case of `COc1ccc(NC(=O)c2cc(CNC(=O)c3c(F)cccc3C(F)(F)F)ccc2Cl)cc1C(=O)Nc1ccc(Br)cc1` [Example 26], the IC50 came out at 3 nM. For `CC(C)(C(=O)NCc1ccc(Cl)c(C(=O)Nc2cnc(OCC(F)F)c(C(=O)Nc3ccc(Br)cc3)c2)c1)C(F)(F)F` [Example 73, N-[2-(2,2-Difluoroethyl)oxy-3-(4-bromophenyl)aminocarbonyl-pyridin-5-yl]-2-chloro-5-[(2,2,2-trifluoro-1,1-dimethyl-ethyl)carbonylamino]methyl-benzamide] the value was 7 nM. With `COc1ccc(NC(=O)c2cc(CNC(=O)C(C)(C)C)ccc2Cl)cc1C(=O)NC1CC1` [Example 35] the figure was approximately 500 nM; with `COc1ccc(NC(=O)c2cc(CNC(=O)C(C)(N)C(F)(F)F)ccc2Cl)cc1C(=O)Nc1ccc(Br)cc1` (centres unmarked) [Example 33], 2 nM; with `COc1ccc(NC(=O)c2cc(CNS(=O)(=O)C3CC3)ccc2Cl)cc1C(=O)Nc1ccc(Br)cc1` [Example 36, N-[4-Methoxy-3-(4-bromophenyl)aminocarbonyl-phenyl]-2-chloro-5-cyclopropylsulphonylaminomethyl-benzamide], 6 nM. With `CC(C)(C)C(=O)NCc1ccc(Cl)c(C(=O)Nc2ccc(OCC(F)F)c(C(=O)NCC3CCC3)c2)c1` [Example 12] the figure was 3 nM. On to `O=C(NCc1ccc(Cl)c(C(=O)Nc2ccc(Cl)c(C(=O)NC3CC3)c2)c1)c1ccc(Cl)s1` [Example 10, N-[4-Chloro-3-cyclopropylaminocarbonyl-phenyl]-2-chloro-5-(5-chloro-thien-2-yl)carbonylaminomethyl-benzamide], for which the IC50 is approximately 900 nM.

For `CC(C)(C)C(=O)NCc1ccc(Cl)c(C(=O)Nc2ccc(F)c(C(=O)Nc3ccc(Br)cc3)c2F)c1` [Example 39], the 50% inhibitory concentration (IC50) worked out at 18 nM. For `COc1ccc(NC(=O)c2cc(CNC(=O)c3c(F)cccc3Cl)ccc2Cl)cc1C(=O)Nc1ccc(Br)cc1` [Example 25] the value was 1 nM. With `CC(C)(C)C(=O)NCc1ccc(Cl)c(C(=O)Nc2ccc(OCC3CC3)c(C(=O)N[C@H]3CC[C@H](C(F)(F)F)CC3)c2)c1` [Example 38, N-[4-(Cyclopropylmethyloxy)-3-[trans-(4-trifluoromethyl-cyclohexyl)amino]carbonyl-phenyl]-2-chloro-5-(tert-butylcarbonylamino)methyl-benzamide] the figure was 4 nM.

Turning to `COc1ccc(NC(=O)c2cc(CNC(=O)C(C)(C)C)ccc2Cl)cc1C(=O)N[C@H]1CC[C@@H](C(F)(F)F)CC1` [Example 19], the IC50 came out at 4 nM.

Consider `CCC(C)(CC)C(=O)NCc1ccc(Cl)c(C(=O)Nc2ccc(OC)c(C(=O)Nc3ccc(Br)cc3)c2)c1` [Example 34], for which the IC50 is 2 nM. With `COc1ccc(NC(=O)c2cc(CNC(=O)C3CCCCC3C)ccc2Cl)cc1C(=O)Nc1ccc(Br)cc1` (centres unmarked) [Example 29] the figure was 2 nM; with `COc1ccc(NC(=O)c2cc(CNC(=O)C3(C)CCCCC3)ccc2Cl)cc1C(=O)Nc1ccc(Br)cc1` [Example 27], 2 nM. On to `COc1ccc(NC(=O)c2cc(CNC(=O)c3cccnc3Cl)ccc2Cl)cc1C(=O)Nc1ccc(Br)cc1` [Example 24], for which the concentration for half-maximal inhibition (IC50) was 2 nM.
